From patent US10703764B2, “Benzopiperazine compositions as BET bromodomain inhibitors” (FORMA Therapeutics, Inc., priority 2013, dated 2020)

Columns and labels:
[1] = target: T1, BRD4 BD1 (Homo sapiens, UniProt O60885); test: AlphaScreen binding assay, BRD4 Bromodomain 1
T1 construct: made in house
Outline: (§1)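 An AlphaScreen competition format was used with His-BRD4 BD1 or BD2 and biotin-H4 K5/8/12/16-acetyl peptide, each at matched final levels of 50 nM (BD1) or 100 nM (BD2). Incubation in HEPES/NaCl buffer with 0.1% BSA and 0.01% Triton X-100 ran ≥1 h before IC50 determination.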

[2] = tested on: MV4-11 cells; test: Oncology cell growth assay (3-day proliferation, CellTiter-Glo); format: cell-based; details: Homo sapiens, MV4-11, 72 h, AML cell line MV4-11, 72 hours, compounds grouped by IC50 range, read-out: MV4-11 IC50 (inhibition of proliferation, gIC50)
Outline: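 Compounds were serially diluted 3-fold in DMSO, giving final well concentrations from 10 down to 0.0045 μM. MV4-11 cells were then seeded at 3000 cells/well in RPMI 1640 with 10% FBS and incubated 72 hours. CellTiter-Glo signal was measured and gIC50 obtained by four-parameter logistic regression.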

[3] = target: T2, BRD4 BD2 (Homo sapiens, UniProt O60885); test: AlphaScreen binding assay, BRD4 Bromodomain 2
T2 construct: made in house
Outline: as §1

`CC(=O)N1c2ccc(-c3cnn(CCS(C)(=O)=O)c3)cc2N(C(=O)OC(C)C)C[C@@H]1C` [Example I-303] showed an IC50 [1] of under 0.1 µM, an IC50 [2] of 0.1 to 0.5 µM and an IC50 [3] of 0.05 to 0.5 µM.
For `CC(=O)N1c2ccc(-c3cnn(C4COC4)c3)cc2N(C(=O)C2(C)CC2)C[C@@H]1C` [Example I-114, (S)-1-(2-methyl-4-(1-methylcyclopropanecarbonyl)-6-(1-(oxetan-3-yl)-1H-pyrazol-4-yl)-3,4-dihydroquinoxalin-1(2H)-yl)ethanone], the IC50 [1] was over 10 µM, the IC50 [2] was over 0.5 µM and the IC50 [3] was 0.05 to 0.5 µM.
`CC(=O)N1c2ccc(-c3cnn(Cc4ccncc4)c3)cc2N(C(=O)OC(C)C)C[C@@H]1C` [Example I-117, (S)-isopropyl 4-acetyl-3-methyl-7-(1-(pyridin-4-ylmethyl)-1H-pyrazol-4-yl)-3,4-dihydroquinoxaline-1(2H)-carboxylate] gave an IC50 [1] of 0.1 to 1 µM, an IC50 [2] of 0.1 to 0.5 µM and an IC50 [3] of 0.05 to 0.5 µM.
`CC(=O)N1c2ccc(-c3cnn(CC(C)(C)F)c3)cc2N(C(=O)OC(C)C)C[C@@H]1C` [Example I-140, (S)-isopropyl 4-acetyl-7-(1-(2-fluoro-2-methylpropyl)-1H-pyrazol-4-yl)-3-methyl-3,4-dihydroquinoxaline-1(2H)-carboxylate] showed an IC50 [1] of 0.1 to 1 µM, an IC50 [2] of 0.1 to 0.5 µM and an IC50 [3] of 0.05 to 0.5 µM.
Work on `CC(=O)N1c2ccc(-c3cnn(C4CC4)c3)cc2N(C(=O)Oc2ccc3nc(C)ccc3c2)C[C@@H]1C` [Example I-513] yielded an IC50 [1] of 0.1 to 1 µM, an IC50 [2] of under 0.1 µM and an IC50 [3] of 0.05 to 0.5 µM.
With `COc1ccc(OC(=O)N2C[C@H](C)N(C(C)=O)c3ccc(-c4cnn(C5CC5)c4)cc32)c(F)c1` [Example I-523] the IC50 [1] was 0.1 to 1 µM, the IC50 [2] was under 0.1 µM and the IC50 [3] was 0.05 to 0.5 µM.
For `CC(=O)N1c2ccc(-c3cnn(C4CCOCC4)c3)cc2N(C(=O)OC2CCC(F)(F)CC2)C[C@@H]1C` [Example I-2, (S)-4,4-difluorocyclohexyl 4-acetyl-3-methyl-7-(1-(tetrahydro-2H-pyran-4-yl)-1H-pyrazol-4-yl)-3,4-dihydroquinoxaline-1(2H)-carboxylate], the IC50 [1] was 0.1 to 1 µM, the IC50 [2] was 0.1 to 0.5 µM and the IC50 [3] was 0.05 to 0.5 µM.
In the case of `COc1cc2c(cc1-c1cnn(C3CC3)c1)N(C(=O)OC(C)C)C[C@H](C)N2C(C)=O` [Example I-210, Isopropyl (S)-4-acetyl-7-(1-cyclopropyl-1H-pyrazol-4-yl)-6-methoxy-3-methyl-3,4-dihydroquinoxaline-1(2H)-carboxylate], the IC50 [1] is reported as 1 to 10 µM, the IC50 [2] is reported as over 0.5 µM and the IC50 [3] is reported as over 0.5 µM.
In the case of `COC(=O)N1c2ccc(-c3cnn(CC(F)(F)F)c3)cc2N(C(=O)OC(C)C)C[C@@H]1C` [Example I-636], the IC50 [1] is reported as 0.1 to 1 µM, the IC50 [2] is reported as over 0.5 µM and the IC50 [3] is reported as over 0.5 µM.
`CC(=O)N1c2ccc(-c3cnn(C4COC4)c3)cc2N(C(=O)OC2CC3CC3C2)C[C@@H]1C` (stereo partly drawn) [Example I-74, (3S)-bicyclo[3.1.0]hexan-3-yl 4-acetyl-3-methyl-7-(1-(oxetan-3-yl)-1H-pyrazol-4-yl)-3,4-dihydroquinoxaline-1(2H)-carboxylate] showed an IC50 [1] of under 0.1 µM, an IC50 [2] of 0.1 to 0.5 µM and an IC50 [3] of under 0.05 µM.
For `COc1cc2c(cc1-c1ccc(S(C)(=O)=O)cc1)N(C(=O)OC(C)C)C[C@H](C)N2C(C)=O` [Example I-199, Isopropyl (S)-4-acetyl-6-methoxy-3-methyl-7-(4-(methylsulfonyl)phenyl)-3,4-dihydroquinoxaline-1(2H)-carboxylate], the IC50 [1] was 1 to 10 µM, the IC50 [2] was over 0.5 µM and the IC50 [3] was over 0.5 µM.
Compound `CC(C)OC(=O)N1C[C@H](C)N(C(=O)C2CC2)c2ccc(-c3cnn(CCO)c3)cc21` [Example I-315] has an IC50 [1] of 0.1 to 1 µM, an IC50 [2] of 0.1 to 0.5 µM and an IC50 [3] of 0.05 to 0.5 µM.
`CC(=O)N1c2ccc(-c3cc(Cl)cc(S(C)(=O)=O)c3)cc2N(C(=O)OC2CCOCC2)C[C@@H]1C` [Example I-1248] was tested, and the IC50 [1] was 0.1 to 1 µM, the IC50 [2] was 0.1 to 0.5 µM and the IC50 [3] was over 0.5 µM.
Compound `CC(C)OC(=O)N1C[C@H](C)N(C(=O)C2CC2)c2ccc(-c3ccc(C(=O)N4CC[C@H](O)C4)cc3)cc21` [Example I-574] has an IC50 [1] of 0.1 to 1 µM, an IC50 [2] of over 0.5 µM and an IC50 [3] of 0.05 to 0.5 µM.
`CC(=O)N1c2ccc(-c3ccc(N(C)S(C)(=O)=O)cc3)cc2N(C(=O)Oc2ccccn2)C[C@@H]1C` [Example I-1330] gave an IC50 [1] of 0.1 to 1 µM, an IC50 [2] of 0.1 to 0.5 µM and an IC50 [3] of 0.05 to 0.5 µM.
In the case of `CC(=O)N1c2ccc(-c3cccc(S(=O)(=O)C4CC4)c3)cc2N(C(=O)OC(C)C)C[C@@H]1C` [Example I-1089], the IC50 [1] is reported as 0.1 to 1 µM, the IC50 [2] is reported as 0.1 to 0.5 µM and the IC50 [3] is reported as 0.05 to 0.5 µM.
Compound `COC(=O)N1c2ccc(-c3cnn(CC(C)(C)O)c3)cc2N(C(=O)Oc2ccc(F)cc2)C[C@@H]1C` [Example I-1023] has an IC50 [1] of 0.1 to 1 µM, an IC50 [2] of over 0.5 µM and an IC50 [3] of under 0.05 µM.
Work on `CC(=O)N1c2ccc(-c3cccc(S(=O)(=O)NCCO)c3)cc2N(C(=O)OC2CCCCC2)C[C@@H]1C` [Example I-1255] yielded an IC50 [1] of 0.1 to 1 µM, an IC50 [2] of 0.1 to 0.5 µM and an IC50 [3] of 0.05 to 0.5 µM.
`CC(=O)N1c2ccc(-c3cnn(C4COC4)c3)cc2N(C(=O)OCC2(F)COC2)C[C@@H]1C` [Example I-66, (S)-(3-fluorooxetan-3-yl)methyl 4-acetyl-3-methyl-7-(1-(oxetan-3-yl)-1H-pyrazol-4-yl)-3,4-dihydroquinoxaline-1(2H)-carboxylate] gave an IC50 [1] of under 0.1 µM, an IC50 [2] of 0.1 to 0.5 µM and an IC50 [3] of under 0.05 µM.
`CC(=O)N1c2ccc(-c3ccc(S(C)(=O)=O)cc3)cc2N(C(=O)Oc2ccccc2Cl)C[C@@H]1C` [Example I-225] showed an IC50 [1] of 0.1 to 1 µM, an IC50 [2] of under 0.1 µM and an IC50 [3] of under 0.05 µM.
In the case of `CC(C)OC(=O)N1C[C@H](C)N(C(=O)C2CC2)c2ccc(-c3ccc(CS(N)(=O)=O)cc3)cc21` [Example I-476], the IC50 [1] is reported as 0.1 to 1 µM, the IC50 [2] is reported as over 0.5 µM and the IC50 [3] is reported as over 0.5 µM.
`CC(=O)N1c2ccc(-c3cnn(CC4(F)COC4)c3)cc2N(C(=O)C2CC2)C[C@@H]1C` [Example I-649] gave an IC50 [1] of 0.1 to 1 µM, an IC50 [2] of over 0.5 µM and an IC50 [3] of 0.05 to 0.5 µM.
For `CC(=O)N1c2ccc(-c3cnn(CC(C)(C)F)c3)cc2N(C(=O)C2CC2)C[C@@H]1C` [Example I-145, (S)-1-(4-(cyclopropanecarbonyl)-6-(1-(2-fluoro-2-methylpropyl)-1H-pyrazol-4-yl)-2-methyl-3,4-dihydroquinoxalin-1 (2H)-yl)ethanone], the IC50 [1] was 0.1 to 1 µM, the IC50 [2] was over 0.5 µM and the IC50 [3] was 0.05 to 0.5 µM.
`CC(C)OC(=O)N1C[C@H](C)N(C(=O)C2CC2)c2ccc(-c3cnn(CC(F)(F)F)c3)cc21` [Example I-619] showed an IC50 [1] of 0.1 to 1 µM, an IC50 [2] of 0.1 to 0.5 µM and an IC50 [3] of 0.05 to 0.5 µM.
Work on `CC(=O)Nc1cc2c(cc1-c1ccc(S(C)(=O)=O)cc1)N(C(=O)OC(C)C)C[C@H](C)N2C(C)=O` [Example I-197, Isopropyl (S)-6-acetamido-4-acetyl-3-methyl-7-(4-(methylsulfonyl)phenyl)-3,4-dihydroquinoxaline-1(2H)-carboxylate] yielded an IC50 [1] of 1 to 10 µM, an IC50 [2] of over 0.5 µM and an IC50 [3] of over 0.5 µM.
Compound `CC(=O)N1c2ccc(-c3ccc(N4CCCS4(=O)=O)cc3)cc2N(C(=O)OC2CC(F)(F)C2)C[C@@H]1C` [Example I-29, 3,3-difluorocyclobutyl (3S)-4-acetyl-7-[4-(1,1-dioxo-1λ^6,2-thiazolidin-2-yl)phenyl]-3-methyl-1,2,3,4-tetrahydroquinoxaline-1-carboxylate] has an IC50 [1] of 0.1 to 1 µM, an IC50 [2] of over 0.5 µM and an IC50 [3] of over 0.5 µM.
